Measured values from the NIST ThermoML archive (doi:10.1016/j.jct.2012.11.014).
± gives the expanded uncertainty stated by the source.

Assay: xn = mol fraction of the nth substance listed
Settings: 101 kPa, Liquid; for speed of sound: Frequency=2 MHz, Linear variable-path acoustic interferometer; for viscosity: Oscillating disk viscometry; for mass density: Vibrating tube method

For `C[NH+](C)C.O=S(=O)([O-])O` [trimethylammonium hydrogen sulfate] + C[S+](C)[O-], the speed of sound (298.15 K, x1 = 0.013) was 1498 ± 3 m/s, the speed of sound (298.15 K, x1 = 0.0356) was 1499 ± 3 m/s and the speed of sound (298.15 K, x1 = 0.0539) was 1501 ± 3 m/s. It also gave a speed of sound (298.15 K, x1 = 0.0982) of 1504 ± 3 m/s, a speed of sound (298.15 K, x1 = 0.1259) of 1507 ± 3 m/s and a speed of sound (298.15 K, x1 = 0.1608) of 1511 ± 3 m/s. For the same compound, the speed of sound (298.15 K, x1 = 0.1982) was 1514 ± 3 m/s, the speed of sound (298.15 K, x1 = 0.2422) was 1519 ± 3 m/s and the speed of sound (298.15 K, x1 = 0.2956) was 1522 ± 3 m/s. For the same compound, the speed of sound (298.15 K, x1 = 0.3855) was 1528 ± 3 m/s, the speed of sound (298.15 K, x1 = 0.4611) was 1533 ± 3 m/s and the speed of sound (298.15 K, x1 = 0.545) was 1536 ± 3 m/s. The speed of sound (298.15 K, x1 = 0.6387) was 1542 ± 3 m/s, the speed of sound (298.15 K, x1 = 0.7076) was 1546 ± 3 m/s and the speed of sound (298.15 K, x1 = 0.7823) was 1548 ± 3 m/s. The speed of sound (298.15 K, x1 = 0.8444) was 1552 ± 3 m/s, the speed of sound (298.15 K, x1 = 0.907) was 1556 ± 3 m/s and the speed of sound (298.15 K, x1 = 0.9524) was 1559 ± 3 m/s. The speed of sound (298.15 K, x1 = 1) was 1564 ± 3 m/s, the viscosity (298.15 K, x1 = 0.013) was 2.07 ± 0.13 mPa·s and the viscosity (298.15 K, x1 = 0.0356) was 2.23 ± 0.14 mPa·s. It also gave a viscosity (298.15 K, x1 = 0.0539) of 2.36 ± 0.15 mPa·s, a viscosity (298.15 K, x1 = 0.0982) of 2.62 ± 0.16 mPa·s and a viscosity (298.15 K, x1 = 0.1259) of 2.75 ± 0.17 mPa·s. It also gave a viscosity (298.15 K, x1 = 0.1608) of 2.91 ± 0.18 mPa·s, a viscosity (298.15 K, x1 = 0.1982) of 3.09 ± 0.19 mPa·s and a viscosity (298.15 K, x1 = 0.2422) of 3.3 ± 0.21 mPa·s. The viscosity (298.15 K, x1 = 0.2956) was 3.52 ± 0.22 mPa·s, the viscosity (298.15 K, x1 = 0.3855) was 3.84 ± 0.24 mPa·s and the viscosity (298.15 K, x1 = 0.4611) was 4.07 ± 0.26 mPa·s. It also gave a viscosity (298.15 K, x1 = 0.545) of 4.3 ± 0.27 mPa·s, a viscosity (298.15 K, x1 = 0.6387) of 4.51 ± 0.29 mPa·s and a viscosity (298.15 K, x1 = 0.7076) of 4.64 ± 0.3 mPa·s. The viscosity (298.15 K, x1 = 0.7823) was 4.78 ± 0.31 mPa·s, the viscosity (298.15 K, x1 = 0.8444) was 4.86 ± 0.31 mPa·s and the viscosity (298.15 K, x1 = 0.907) was 4.95 ± 0.32 mPa·s. It also gave a viscosity (298.15 K, x1 = 0.9524) of 5.02 ± 0.32 mPa·s, a viscosity (298.15 K, x1 = 1) of 5.1 ± 0.33 mPa·s and a mass density (298.15 K, x1 = 0.013) of 1102.89 ± 1 kg/m3. For the same compound, the mass density (298.15 K, x1 = 0.0356) was 1115.76 ± 1 kg/m3, the mass density (298.15 K, x1 = 0.0539) was 1125.92 ± 1.1 kg/m3 and the mass density (298.15 K, x1 = 0.0982) was 1149.81 ± 1.1 kg/m3. It also gave a mass density (298.15 K, x1 = 0.1259) of 1164.24 ± 1.1 kg/m3, a mass density (298.15 K, x1 = 0.1608) of 1181.78 ± 1.1 kg/m3 and a mass density (298.15 K, x1 = 0.1982) of 1199.92 ± 1.1 kg/m3. For the same compound, the mass density (298.15 K, x1 = 0.2422) was 1220.26 ± 1.1 kg/m3, the mass density (298.15 K, x1 = 0.2956) was 1243.91 ± 1.1 kg/m3 and the mass density (298.15 K, x1 = 0.3855) was 1281.02 ± 1.1 kg/m3. The mass density (298.15 K, x1 = 0.4611) was 1309.82 ± 1.1 kg/m3, the mass density (298.15 K, x1 = 0.545) was 1339.48 ± 1.1 kg/m3 and the mass density (298.15 K, x1 = 0.6387) was 1370.13 ± 1.1 kg/m3. The mass density (298.15 K, x1 = 0.7076) was 1391.08 ± 1.1 kg/m3, the mass density (298.15 K, x1 = 0.7823) was 1412.52 ± 1.1 kg/m3 and the mass density (298.15 K, x1 = 0.8444) was 1429.25 ± 1.1 kg/m3. The mass density (298.15 K, x1 = 0.907) was 1445.39 ± 1.1 kg/m3, the mass density (298.15 K, x1 = 0.9524) was 1456.38 ± 1.1 kg/m3 and the mass density (298.15 K, x1 = 1) was 1467.58 ± 1.2 kg/m3. The speed of sound (303.15 K, x1 = 0.013) was 1475 ± 3 m/s, the speed of sound (303.15 K, x1 = 0.0356) was 1477 ± 3 m/s and the speed of sound (303.15 K, x1 = 0.0539) was 1479 ± 3 m/s. For the same compound, the speed of sound (303.15 K, x1 = 0.0982) was 1485 ± 3 m/s, the speed of sound (303.15 K, x1 = 0.1259) was 1488 ± 3 m/s and the speed of sound (303.15 K, x1 = 0.1608) was 1492 ± 3 m/s. For the same compound, the speed of sound (303.15 K, x1 = 0.1982) was 1496 ± 3 m/s, the speed of sound (303.15 K, x1 = 0.2422) was 1501 ± 3 m/s and the speed of sound (303.15 K, x1 = 0.2956) was 1506 ± 3 m/s. It also gave a speed of sound (303.15 K, x1 = 0.3855) of 1514 ± 3 m/s, a speed of sound (303.15 K, x1 = 0.4611) of 1522 ± 3 m/s and a speed of sound (303.15 K, x1 = 0.545) of 1528 ± 3 m/s. For the same compound, the speed of sound (303.15 K, x1 = 0.6387) was 1532 ± 3 m/s, the speed of sound (303.15 K, x1 = 0.7076) was 1538 ± 3 m/s and the speed of sound (303.15 K, x1 = 0.7823) was 1540 ± 3 m/s. The speed of sound (303.15 K, x1 = 0.8444) was 1545 ± 3 m/s, the speed of sound (303.15 K, x1 = 0.907) was 1551 ± 3 m/s and the speed of sound (303.15 K, x1 = 0.9524) was 1556 ± 3 m/s. For the same compound, the speed of sound (303.15 K, x1 = 1) was 1560 ± 3 m/s, the viscosity (303.15 K, x1 = 0.013) was 1.89 ± 0.12 mPa·s and the viscosity (303.15 K, x1 = 0.0356) was 2.03 ± 0.13 mPa·s. It also gave a viscosity (303.15 K, x1 = 0.0539) of 2.15 ± 0.13 mPa·s, a viscosity (303.15 K, x1 = 0.0982) of 2.39 ± 0.15 mPa·s and a viscosity (303.15 K, x1 = 0.1259) of 2.54 ± 0.16 mPa·s. For the same compound, the viscosity (303.15 K, x1 = 0.1608) was 2.69 ± 0.17 mPa·s, the viscosity (303.15 K, x1 = 0.1982) was 2.85 ± 0.18 mPa·s and the viscosity (303.15 K, x1 = 0.2422) was 3.02 ± 0.19 mPa·s. For the same compound, the viscosity (303.15 K, x1 = 0.2956) was 3.22 ± 0.2 mPa·s, the viscosity (303.15 K, x1 = 0.3855) was 3.51 ± 0.22 mPa·s and the viscosity (303.15 K, x1 = 0.4611) was 3.71 ± 0.23 mPa·s. For the same compound, the viscosity (303.15 K, x1 = 0.545) was 3.88 ± 0.25 mPa·s, the viscosity (303.15 K, x1 = 0.6387) was 4.05 ± 0.26 mPa·s and the viscosity (303.15 K, x1 = 0.7076) was 4.15 ± 0.27 mPa·s. For the same compound, the viscosity (303.15 K, x1 = 0.7823) was 4.26 ± 0.27 mPa·s, the viscosity (303.15 K, x1 = 0.8444) was 4.32 ± 0.28 mPa·s and the viscosity (303.15 K, x1 = 0.907) was 4.38 ± 0.28 mPa·s. The viscosity (303.15 K, x1 = 0.9524) was 4.43 ± 0.29 mPa·s, the viscosity (303.15 K, x1 = 1) was 4.48 ± 0.29 mPa·s and the mass density (303.15 K, x1 = 0.013) was 1099.96 ± 1 kg/m3. For the same compound, the mass density (303.15 K, x1 = 0.0356) was 1112.84 ± 1 kg/m3, the mass density (303.15 K, x1 = 0.0539) was 1122.95 ± 1.1 kg/m3 and the mass density (303.15 K, x1 = 0.0982) was 1146.81 ± 1.1 kg/m3. For the same compound, the mass density (303.15 K, x1 = 0.1259) was 1161.18 ± 1.1 kg/m3, the mass density (303.15 K, x1 = 0.1608) was 1178.69 ± 1.1 kg/m3 and the mass density (303.15 K, x1 = 0.1982) was 1196.87 ± 1.1 kg/m3. It also gave a mass density (303.15 K, x1 = 0.2422) of 1217.02 ± 1.1 kg/m3, a mass density (303.15 K, x1 = 0.2956) of 1240.65 ± 1.1 kg/m3 and a mass density (303.15 K, x1 = 0.3855) of 1277.68 ± 1.1 kg/m3. For the same compound, the mass density (303.15 K, x1 = 0.4611) was 1306.38 ± 1.1 kg/m3, the mass density (303.15 K, x1 = 0.545) was 1336.01 ± 1.1 kg/m3 and the mass density (303.15 K, x1 = 0.6387) was 1366.49 ± 1.1 kg/m3. For the same compound, the mass density (303.15 K, x1 = 0.7076) was 1387.36 ± 1.1 kg/m3, the mass density (303.15 K, x1 = 0.7823) was 1408.73 ± 1.1 kg/m3 and the mass density (303.15 K, x1 = 0.8444) was 1425.42 ± 1.1 kg/m3. For the same compound, the mass density (303.15 K, x1 = 0.907) was 1441.51 ± 1.1 kg/m3, the mass density (303.15 K, x1 = 0.9524) was 1452.45 ± 1.1 kg/m3 and the mass density (303.15 K, x1 = 1) was 1463.57 ± 1.2 kg/m3.
